ChEMBL document CHEMBL1151414, “Plant anticancer agents. XXIII. 6 alpha-senecioyloxychaparrin, a new antileukemic quassinoid from Simaba multiflora” (1983)
Values after ≈ are worked out from the molar mass of the structure shown.

Assays:
Assay type in all cases: functional
P388 [1] = test: In vivo antitumor activity against mouse P388 cells at 1.25 mg/kg relative to control
P388 [2] = test: In vivo antitumor activity against mouse P388 cells at 0.31 mg/kg relative to control
P388 [3] = test: In vivo antitumor activity against mouse P388 cells at 0.63 mg/kg relative to control
P388 [4] = test: In vivo antitumor activity against mouse P388 cells at 2.5 mg/kg relative to control
KB = test: Cytotoxicity against human KB cells by NCI method; conditions: read-out: ED50 (the source's name)
P388 [5] = test: In vivo antitumor activity against mouse P388 cells at 1.5 mg/kg relative to control
P388 [6] = test: In vivo antitumor activity against mouse P388 cells at 0.38 mg/kg relative to control
P388 [7] = test: In vivo antitumor activity against mouse P388 cells at 3.0 mg/kg relative to control
P388 [8] = test: In vivo antitumor activity against mouse P388 cells at 0.75 mg/kg relative to control

Row | Structure (SMILES) | T/C (P388 [1]) [%] | T/C (P388 [2]) [%] | T/C (P388 [3]) [%] | T/C (P388 [4]) [%] | EC50 (KB) [ng/mL] | T/C (P388 [5]) [%] | T/C (P388 [6]) [%] | T/C (P388 [7]) [%] | T/C (P388 [8]) [%]
1 | CC(C)=CC(=O)O[C@@H]1[C@H]2C(C)=CC(=O)[C@H](O)[C@]2(C)[C@H]2[C@]3(O)OC[C@@]24[C@@H]1OC(=O)C[C@H]4[C@@H](C)[C@H]3O | 133 | 145 | 176 | 136 | 3 (≈ 6.3 nM) |  |  |  | 
2 | CC(C)=CC(=O)O[C@@H]1[C@H]2C(C)=C[C@H](O)[C@H](O)[C@]2(C)[C@H]2[C@]3(O)OC[C@@]24[C@@H]1OC(=O)C[C@H]4[C@@H](C)[C@H]3O |  |  |  |  | 3 (≈ 6.27 nM) | 133 | 142 | 133 | 160
3 | CC1=CC(=O)[C@@H](O)[C@]2(C)[C@H]3[C@@]4(O)OC[C@@]35[C@@H](C[C@@H]12)OC(=O)C[C@H]5[C@@H](C)[C@H]4O [CHAPARRINONE] |  |  |  |  | 25 (≈ 66.1 nM) |  |  |  | 
